This passage reports Ki results from patent US20080280877A1, “Azetidines” (Pfizer Inc, priority 2007, published 2008).

For the assay, the target named is T1, recombinant human EP-2 receptor (Homo sapiens, UniProt P43116).
T1 construct: cell line stably transfected with full length cDNA encoding human Prostaglandin E2 was established; expressed in transfected cells; host or cells: CHO (Chinese hamster ovary) cells, stably transfected
T1 sequence (P43116 whole entry): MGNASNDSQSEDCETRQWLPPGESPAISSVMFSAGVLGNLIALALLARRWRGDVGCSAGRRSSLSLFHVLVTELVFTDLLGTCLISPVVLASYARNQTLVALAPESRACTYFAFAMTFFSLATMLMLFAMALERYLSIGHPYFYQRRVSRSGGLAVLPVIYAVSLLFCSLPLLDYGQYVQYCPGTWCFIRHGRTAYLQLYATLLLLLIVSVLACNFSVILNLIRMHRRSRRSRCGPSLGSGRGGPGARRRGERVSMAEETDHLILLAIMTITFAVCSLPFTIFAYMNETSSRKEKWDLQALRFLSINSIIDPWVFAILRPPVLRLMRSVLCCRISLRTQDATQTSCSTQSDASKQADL
Kind of assay: in vitro antagonist potency against recombinant human EP-2 receptor in CHO cells (cAMP, Protocol 1). The conditions noted are these: functional Ki by Cheng-Prusoff from IC50; CHO cells stimulated with PGE2 (5 nM); cAMP readout; read-out: EP2 Ki. It is filed as cell-based. The source says:
1.0 Measurement of in vitro Antagonist Potency (IC50) of Compounds Against Recombinant Human Prostaglandin E2 Receptor in CHO Cells
The prostaglandin E2 (EP-2) receptor is Gs coupled and agonism of the receptor by PGE2 results in activation of intracellular adenylate cyclase enzymes that synthesise the second messenger signalling molecule, adenosine 3′,5′-cyclic monophosphate (cAMP). […] Decreases in cAMP levels following treatment of stimulated recombinant EP-2 cells with potential antagonist compounds were measured and potency (IC50) calculated as follows. A Chinese hamster ovary (CHO) cell line stably transfected with full length cDNA encoding human Prostaglandin E2 was established using standard molecular biology methods. Test compounds were dissolved in dimethyl sulphoxide (DMSO) at 4 mM. 11 point half log unit increment dilution series of test compound were prepared in DMSO then diluted 1 in 40 in a buffer comprised of phosphate buffered saline (PBS) and 0.05% pluronic F-127 surfactant. Freshly cultured cells at 80-90% confluence were harvested and re-suspended in 90% growth media/10% DMSO. The cells were frozen using a planar freezer and stored in frozen aliquots in cryovials in liquid nitrogen until the day of the experiment. A vial of cells was defrosted in a 37° C. water bath for 2 min, then transferred to 10 ml of Dulbecco's Modified Eagle's Medium (DMEM). The cells were then centrifuged for 5 min at 1000 g and the pellet re-suspended at 1,000,000 cells/ml in DMEM. 5,000 cells (5 ul) were added to 5 ul of the compound dilution series in a 384 well assay plate and pre-incubated for 30 min at 37° C. 5 ul of agonist (15 nM PGE2 in PBS to give 5 nM FAC) was added and plates further incubated for 90 min at 37° C. The relative cAMP concentration in each well was then measured using a ? -galactosidase enzyme fragment complementation method purchased in kit form as the Discoverx cAMP II kit from GE Healthcare, UK. […] Sigmoidal curves were fitted to plots of log10 inhibitor concentration vs. percent effect. IC50 estimates were determined as the concentration of test compound giving an effect half way between the bottom and top asymptotes of the sigmoidal dose response curve. Each experiment included an IC50 determination for the literature compound as a standard to track assay consistency and allow fair comparison between values obtained in different experiments. The EC50 of PGE2 is used in combination with the ligand concentration in the assay to determine Ki values for antagonist dose responses using the Cheng-Prusoff equation. Consequently an agonist dose response curve is carried out for each experiment using the same incubation as the antagonist plate.
As to `N#Cc1ccc(-c2ccc(OCC3(C(=O)O)CN(C(=O)c4ccc(Cl)cc4)C3)cc2)cc1` [Example 1, 1-(4-Chlorobenzoyl)-3-{[(4′-cyanobiphenyl-4-yl)oxy]methyl}azetidine-3-carboxylic acid], the Ki stood at 0.9 nM.

For `O=C(c1ccc(Cl)cc1)N1CC(COc2ccc(-c3ccc(F)cc3)cc2)(C(=O)O)C1` [Example 2], the inhibition constant Ki stood at 1.1 nM.

For `O=C(c1ccc(F)cc1)N1CC(COc2ccc(-c3ccc4ccccc4n3)cc2)(C(=O)O)C1` [Example 3], the inhibition constant (Ki) was 0.7 nM.

For `O=C(c1ccc(Cl)cc1)N1CC(COc2ccc(-c3ccc(Cl)cc3)cc2)(C(=O)O)C1` [Example 4], the inhibitory constant (Ki) turned out to be 1.6 nM.

In the case of `O=C(c1ccc(Cl)cc1)N1CC(COc2ccc(-c3ccc(Cl)cn3)cc2)(C(=O)O)C1` [Example 5], the Ki came to 1.9 nM.

On to `N#Cc1ccc(-c2ccc(OCC3(C(=O)O)CN(C(=O)c4ccc(F)cc4)C3)cc2)cc1` [Example 6], for which the Ki amounted to 2.3 nM.

`O=C(c1ccc(F)cc1)N1CC(COc2ccc3nc(-c4ccccn4)sc3c2)(C(=O)O)C1` [Example 7]: the Ki was found to be 1.4 nM.

For `O=C(c1ccc(F)cc1)N1CC(COc2ccc(-c3cc4ccccc4nn3)cc2)(C(=O)O)C1` [Example 8], the inhibition constant Ki is 2.3 nM.

For `O=C(c1ccc(F)cc1)N1CC(COc2ccc(-c3ncc(Cl)cn3)cc2)(C(=O)O)C1` [Example 9], the Ki was determined as 6.6 nM.

Regarding `O=C(c1ccc(F)cc1)N1CC(COc2ccc(-c3ccc(Cl)cc3)cc2)(C(=O)O)C1` [Example 10], the Ki turned out to be 3.1 nM.

For the molecule `O=C(c1ccc(F)cc1)N1CC(COc2cnc(-c3ccc(Cl)cc3)nc2)(C(=O)O)C1` [Example 11], the inhibitory constant (Ki) is 10.5 nM.

Turning to `O=C(c1ccc(F)cc1)N1CC(COc2ccc(-c3ccc(Cl)cn3)cc2)(C(=O)O)C1` [Example 12], the Ki worked out at 3.3 nM.

Take `COc1ccc2cc(OCC3(C(=O)O)CN(C(=O)c4ccc(Cl)cc4)C3)ccc2c1` [Example 13]: the inhibitory constant (Ki) came out at 6 nM.

`Cc1ccc(-c2ccc(OCC3(C(=O)O)CN(C(=O)c4ccc(F)cc4)C3)cc2)cc1` [Example 15]: the inhibition constant (Ki) turned out to be 7 nM.

With `O=C(c1ccc(F)cc1)N1CC(COc2ccc(-c3ccc(F)cc3)cc2)(C(=O)O)C1` [Example 16], the inhibition constant Ki came out at 7.5 nM.

For `O=C(c1ccc(Cl)cc1)N1CC(COc2ccc(-c3ccccc3)cc2)(C(=O)O)C1` [Example 17], the Ki was 19.5 nM.

Turning to `CCOc1ccccc1C(=O)N1CC(COc2ccc3cc(OC)ccc3c2)(C(=O)O)C1` [Example 18], the Ki amounted to 19.7 nM.

Turning to `COc1ccc2cc(OCC3(C(=O)O)CN(C(=O)c4ccccc4)C3)ccc2c1` [Example 20], the Ki was 24.4 nM.

For the molecule `O=C(c1ccccc1)N1CC(COc2ccc(-c3ccccc3)cc2)(C(=O)O)C1` [Example 21], the Ki worked out at 27.7 nM.

For the molecule `O=C(c1ccc(F)cc1)N1CC(COc2ccc(-c3ccccn3)cc2)(C(=O)O)C1` [Example 22], the Ki came to 53.9 nM.

For the molecule `Cc1ccc2cc(OCC3(C(=O)O)CN(C(=O)c4ccc(Cl)cc4)C3)ccc2n1` [Example 23], the inhibition constant (Ki) worked out at 101 nM.

`Cc1cc(C)c2cc(OCC3(C(=O)O)CN(C(=O)c4ccc(F)cc4)C3)ccc2n1` [Example 24]: the Ki was determined as 103 nM.

As to `Cc1ccc2cc(OCC3(C(=O)O)CN(C(=O)c4ccc(F)cc4)C3)ccc2n1` [Example 25], the inhibitory constant (Ki) was determined as 122 nM.

Consider `Cc1ccc2cc(OCC3(C(=O)O)CN(C(=O)c4cccc(Cl)c4)C3)ccc2n1` [Example 26], for which the Ki stood at 125 nM.

As for `O=C(c1ccc(F)cc1)N1CC(COc2ccc(-c3ccccn3)nc2)(C(=O)O)C1` [Example 27], the inhibitory constant (Ki) came to 146 nM.

Consider `O=C(c1ccccc1)N1CC(COc2ccc3ccccc3c2)(C(=O)O)C1` [Example 28], for which the Ki was 175 nM.

As to `COc1ccc2ccc(OCC3(C(=O)O)CN(C(=O)c4ccc(F)cc4)C3)cc2c1` [Example 29], the inhibition constant Ki was determined as 196 nM.

On to `Cc1nc2ccc(OCC3(C(=O)O)CN(C(=O)c4ccc(F)cc4)C3)cc2s1` [Example 30], for which the Ki was determined as 206 nM.

As for `COc1cccc(C(=O)N2CC(COc3ccc4nc(C)ccc4c3)(C(=O)O)C2)c1` [Example 31], the Ki came out at 233 nM.

As for `Cc1ccc2cc(OCC3(C(=O)O)CN(C(=O)c4ccccc4)C3)ccc2n1` [Example 32], the Ki is 271 nM.

Consider `O=C(c1ccc(F)cc1)N1CC(COc2cnc3ccccc3c2)(C(=O)O)C1` [Example 33], for which the Ki was determined as 304 nM.

Regarding `CCOc1ccc(C(=O)N2CC(COc3ccc4nc(C)ccc4c3)(C(=O)O)C2)cc1` [Example 34], the Ki stood at 338 nM.

As for `O=C(c1ccc(Cl)cc1)N1CC(COc2cccc(-c3ccccc3)c2)(C(=O)O)C1` [Example 35], the inhibition constant Ki worked out at 525 nM.

Consider `O=C(c1ccccc1)N1CC(COc2cccc(-c3ccccc3)c2)(C(=O)O)C1` [Example 36], for which the inhibition constant (Ki) worked out at 705 nM.

As for `O=C(c1ccc(F)cc1)N1CC(COc2cccc(-c3ccccc3)c2)(C(=O)O)C1` [Example 37], the inhibition constant (Ki) came to 752 nM.

Take `CCCOc1ccc(OCC2(C(=O)O)CN(C(=O)c3ccc(Cl)cc3)C2)cc1` [Example 38]: the Ki amounted to 31.4 nM.

In the case of `O=C(c1ccc(F)cc1)N1CC(COc2ccc(-c3ccccc3Cl)cc2)(C(=O)O)C1` [Example 39, 3-{[(2′-Chlorobiphenyl-4-yl)oxy]methyl}-1-(4-fluorobenzoyl)azetidine-3-carboxylic acid], the Ki was determined as 22.5 nM.

Take `O=C(c1ccccc1)N1CC(COc2cnc(-c3ccc(Cl)cc3)cn2)(C(=O)O)C1` [Example 42]: the inhibitory constant (Ki) came out at 5 nM.

Take `O=C(c1ccc(F)cc1)N1CC(COc2ccc(-c3cccc(Cl)c3)cc2)(C(=O)O)C1` [Example 43]: the Ki stood at 5.2 nM.

In the case of `O=C(c1ccc(F)cc1)N1CC(COc2ccc(-c3ccc(F)cc3F)cc2)(C(=O)O)C1` [Example 44], the Ki was 5.6 nM.

Turning to `O=C(c1ccccc1)N1CC(COc2cnc(-c3ccccc3)cn2)(C(=O)O)C1` [Example 45, 1-Benzoyl-3-{[(5-phenylpyrazin-2-yl)oxy]methyl}azetidine-3-carboxylic acid], the inhibition constant Ki was determined as 56.7 nM.

Take `COc1ccc(-c2cnc(OCC3(C(=O)O)CN(C(=O)c4ccccc4)C3)nc2)cc1` [Example 46]: the Ki was 37.2 nM.

On to `O=C(c1ccc(Cl)cc1)N1CC(COc2ccc(-c3ccccc3)nn2)(C(=O)O)C1` [Example 47], for which the Ki worked out at 69.3 nM.

In the case of `COc1ccc2nc(OCC3(C(=O)O)CN(C(=O)c4ccccc4)C3)ccc2c1` [Example 48], the inhibition constant (Ki) worked out at 79.7 nM.

For `O=C(c1ccccc1)N1CC(COc2ccc(-c3ccccc3)cn2)(C(=O)O)C1` [Example 49], the inhibitory constant (Ki) amounted to 114 nM.

Turning to `COc1ccc2cc(OCC3(C(=O)NS(C)(=O)=O)CN(C(=O)c4ccc(F)cc4)C3)ccc2c1` [Example 50, 1-(4-Fluorobenzoyl)-3-{[(6-methoxy-2-naphthyl)oxy]methyl}-N-(methylsulfonyl)azetidine-3-carboxamide], the Ki was 776 nM.

Turning to `CCOC(=O)C1(COc2ccc3cc(OC)ccc3c2)CN(C(=O)c2ccc(F)cc2)C1` [Example 51, Ethyl 1-(4-fluorobenzoyl)-3-{[(6-methoxy-2-naphthyl)oxy]methyl}azetidine-3-carboxylate], the inhibition constant Ki was 333 nM.

With `COc1ccc2cc(OCC3(C#N)CN(C(=O)c4ccc(F)cc4)C3)ccc2c1` [Example 52, 1-(4-Fluorobenzoyl)-3-{[(6-methoxy-2-naphthyl)oxy]methyl}azetidine-3-carbonitrile], the Ki was 182 nM.

Turning to `O=C(c1ccc(F)cc1)N1CC(COc2ccc(Br)cc2)(C(=O)O)C1` [Example 53, 3-[(4-Bromophenoxy)methyl]-1-(4-fluorobenzoyl)azetidine-3-carboxylic acid], the Ki came to 615 nM.

`O=C(C1CCC(F)(F)CC1)N1CC(COc2ccc(-c3ccc(Cl)cc3)cc2)(C(=O)O)C1` [Example 54, 3-{[(4′-Chlorobiphenyl-4-yl)oxy]methyl}-1-[(4,4-difluorocyclohexyl)carbonyl]azetidine-3-carboxylic acid]: the inhibition constant Ki came out at 10.9 nM.

On to `COc1ccc2cc(OCC3(C(=O)O)CN(C(=O)Oc4ccc(F)cc4)C3)ccc2c1` [Example 60, 1-[(4-Fluorophenoxy)carbonyl]-3-{[(6-methoxy-2-naphthyl)oxy]methyl}azetidine-3-carboxylic acid], for which the Ki turned out to be 268 nM.

For `COc1ccc(OC(=O)N2CC(COc3ccc4cc(OC)ccc4c3)(C(=O)O)C2)cc1` [Example 62], the Ki was 12.4 nM.

The Ki is the equilibrium dissociation constant of an inhibitor or competing ligand from its target.
